Test results: patent US4307104A, “Guanidine compounds” (Smith Kline & French Laboratories Limited, priority 1979, dated 1981)

Tested on: histamine H2 -receptors
Assay: inhibition of histamine-stimulated secretion of gastric acid from the lumen-perfused stomachs of rats anaesthetised with urethane
Type: in vivo
Settings: i.v., lumen-perfused stomach of urethane-anaesthetised rats

SMILES: N=C(N)Nc1nc(CSCCNC2=C([N+](=O)[O-])CCCN2)cs1 [Example 1, 2-[2-(2-Guanidino-4-thiazolylmethylthio)ethylamino-]-3-nitro-1,4,5,6-tetrahydropyridine]
- dose causing 50% inhibition of maximal acid secretion: less than 0.1 micromole kh^-1
